Measurements from patent US6008220A, “Aromatic keto-acids and their derivatives as inhibitors of matrix metalloproteinases” (priority 1998, dated 1999).
Counter-ions that a name gives are not always drawn. Like-named read-outs stand apart in the source and are kept apart here.

What was measured:
[1] = test system: experimental allergic encephalomyelitis (EAE); settings: dose dependent; cited from earlier work
[2] = target: GCD (recombinant gelatinase A catalytic domain); assay: Inhibition of recombinant gelatinase A catalytic domain (GCD), thiopeptolide substrate Ac-Pro-Leu-Gly-thioester-Leu-Leu-Gly-OEt; assay type: biochemical
Protocol: Experiments were carried out with the catalytic domains of the proteinases.

[3] = target: SCD (stromelysin-1 catalytic domain) (Homo sapiens, UniProt P08254); assay: Inhibition of stromelysin-1 catalytic domain (SCD), thiopeptolide substrate Ac-Pro-Leu-Gly-thioester-Leu-Leu-Gly-OEt; assay type: biochemical
Protocol: Experiments were carried out with the catalytic domains of the proteinases. […] IC50 values were determined using a thiopeptolide substrate, Ac-Pro-Leu-Gly-thioester-Leu-Leu-Gly-OEt (Ye Q.-Z., Johnson L. L., Hupe D. J., and Baragi V., "Purification and Characterization of the Human Stromelysin Catalytic Domain Expressed in Escherichia coli", Biochemistry, 1992;31:11231-11235).

[4] = test system: human ovarian carcinoma xenografts; settings: mice bearing human ovarian carcinoma xenografts; cited from earlier work
bovine nasal cartilage = settings: cited from earlier work
pig articular cartilage = settings: cited from earlier work

Sequence of SCD (stromelysin-1 catalytic domain) (P08254 100-272 limits assumed): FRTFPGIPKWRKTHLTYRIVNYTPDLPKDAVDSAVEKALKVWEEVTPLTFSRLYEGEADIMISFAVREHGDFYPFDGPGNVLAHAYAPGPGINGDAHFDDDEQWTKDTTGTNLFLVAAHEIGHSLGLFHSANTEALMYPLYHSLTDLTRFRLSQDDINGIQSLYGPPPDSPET

In the case of CNC(=O)[C@H](Cc1c[nH]c2ccccc12)NC(=O)[C@@H](CC(=O)NO)CC(C)C [GM6001], the “development or clinical expression of EAE” value [1] is listed as “suppressed the development or reversed the clinical expression”.
Work on O=C(CCC(=O)c1ccc(N2CCC(c3ccccc3)CC2)cc1)NO [Example 3, N-Hydroxy-4-oxo-4-[4-(4-phenyl-piperidin-1-yl)-phenyl]-butyramide] yielded an IC50 [2] of 40 nM.
With O=C(O)CCC(=O)c1ccc(N2CCC(c3ccccc3)CC2)cc1 [potassium salt] the IC50 [3] was 80 nM and the IC50 ([2]; potassium salt) was 560 nM.
For O=C(O)CCC(=NO)c1ccc(N2CCC(c3ccccc3)CC2)cc1 [Example 4, E/Z-4-Hydroxyimino-4-[4-(4-phenyl-piperidin-1-yl)-phenyl]-butyric acid], the IC50 [3] was 20 nM and the IC50 [2] was 150 nM.
In the case of CNC(=O)[C@H](Cc1ccccc1)NC(=O)[C@H](CC(C)C)[C@H](CSc1cccs1)C(=O)NO [BB-94], the survival [4] is given as “prolonged the survival” and the tumor burden [4] is given as “decreased the tumor burden”.
O=C(O)CCC(=O)c1ccc(N2CCN(c3ccccc3)CC2)cc1 [Example 6, 4-Oxo-4-[4-(4-phenyl-piperazin-1-yl)-phenyl]-butyric acid] gave an IC50 [2] of 1600 nM.
Work on CC(CC(=O)O)CC(=O)c1ccc(N2CCC(c3ccccc3)CC2)cc1 (racemic) [Example 7, (±)3-Methyl-5-oxo-5-[4-(4-phenyl-piperidin-1-yl)-phenyl]-pentanoic acid] yielded an IC50 [3] of 400 nM and an IC50 [2] of 14000 nM.
O=C(O)CCC(=NOCc1ccccc1)c1ccc(N2CCC(c3ccccc3)CC2)cc1 [Example 5, E/Z-4-Benzyloxyimino-4-[4-(4-phenyl-piperidin-1-yl)-phenyl]-butyric acid] showed an IC50 [3] of 2900 nM and an IC50 [2] of 6300 nM.
Compound O=C(O)CCC(=O)c1ccc(N2CCC(c3ccccc3)CC2)cc1 [Example 1, 4-Oxo-4-[4-(4-phenyl-piperidin-1-yl)-phenyl]-butyric acid] has an IC50 [2] of 1300 nM.
For “TIMP-1: natural endogenous inhibitors of MMPs (TIMPs)”, the “formation of collagen fragments” value (bovine nasal cartilage) is listed as “prevented the formation of collagen fragments”, the “formation of proteoglycan fragments” value (bovine nasal cartilage) is listed as “not proteoglycan fragments” and the “formation of collagen fragments” value (pig articular cartilage) is listed as “prevented the formation of collagen fragments”. For the same compound, the “formation of proteoglycan fragments” value (pig articular cartilage) was “not proteoglycan fragments”.
